How the values were obtained:
[1] = test system: eggs of nematodes (Meloidogyne arenaria); assay: Ovicidal activity on the eggs of nematodes (number of hatchings); type: in vivo
Procedure: (§1) The breeding of the nematodes was carried out on tomato plants. The tests were carried out with, aqueous solutions of DMDS at 0.0001%, 0.1%, 1% and 5% by mass, of DPDS at 1%, 5% and 10% by mass, and of allicin at 0.0003%, 0.0015% and 0.003% by mass, compared with a control consisting of pure water, and repeated five times. The ovicidal activity was also evaluated according to the same modalities, by counting the number of hatchings after 5 to 20 days following exposure to the products.

[2] = test system: larvae of Meloidogyne arenaria; assay: Nematicidal in vitro test on second-stage juvenile larvae; type: in vivo; details: for Immobility rate after 48 h: 24 h in solution then 24 h in pure water; for Immobility rate after 24 h: aqueous solution
Procedure: The second-stage juvenile larvae (the free and infesting stage) are immersed for 24 hours in the test solution and then the number of larvae paralysed are counted before transferring them into pure water for another 24 hours. At the end of the 48 hours which have thus elapsed, the larvae paralysed are again counted and the larvae truly dead are counted the next day.
as §1

Sclerotium rolfsii = assay: Fungicidal efficacy by gassing, sclerotia; type: cell-based; set-up: Vitality score Nm (over 19 days): scale not given here; Reduction in viability RV / Reduction in vitality score RNm: unit not given here; details: for Reduction in viability RV / Reduction in vitality score RNm: compared with the control
Procedure: These four organisms are the following:
Sclerotium rolfsii: a fungus which is also polyphagous and which is found, for example, on melon and courgette crops.
• Sclerotinia sclerotiorum: sclerotia • Sclerotium rolfsii: sclerotia • Rhizoctonia solani: colonized barley grains (mycelium and sclerotia) • Phytophthora cactorum: colonized millet grains (mycelium, sporangia and oospores) Preparation of the Fungi (24 h Before the Gassing Operation) 1. Preparation of the sclerotia of Sclerotinia sclerotiorum and of Sclerotium rolfsii: The fungi are cultured on malt agar medium until the sclerotia are obtained. The sclerotia are collected in a sterile manner and stored dry in empty Petri dishes until they are used. The sclerotia used for the trial are over 3 months old and are perfectly dormant. 2. Preparation of Phytophthora cactorum and of Rhizoctonia solani: The millet and barley used for the multiplication of the two fungi are moistened with ultrapure water by immersing for 24 hours. The grains are then slightly drained and then distributed into flasks and autoclaved (3 autoclavings at 110° C. for 20 minutes, 3 times at 24 hour intervals). Fragments of fungal culture are introduced into the flasks which are then incubated at 22° C.±2° C. (white light 18 h) until homogeneous colonization is obtained. The grains are then removed from the flasks in a sterile manner, dried in the sterile stream of a safety cabinet and then stored in the dry state until they are used. Conditions for Gassing and for Desorption
All the batches of fungi to be treated are placed for a few hours at the trial temperature (20° C.). Between 35 and 300 units of fungi or “propagules” (grains or sclerotia) are subjected to gassing during each trial.
Each fumigation chamber comprising to one or more species of fungi corresponds to a glass round-bottomed flask which is impervious to the gas and has a volume of 11 litres. Each round-bottomed flask is equipped with branch connections, one at the bottom for introducing the liquid DMDS, one at the top for collecting the air sample with a syringe.
Before introducing the gas, a partial vacuum (−500 mbar) is established in the round-bottomed flask with a vacuum pump. This makes it possible, on the one hand, to avoid the phenomenon of excess pressure due to the expansibility of DMDS in the round-bottomed flask and, on the other hand, to promote better homogeneity of the air-gas mixture in the first few seconds which follow injection. The DMDS (weighed accurately to the mg) is injected with a syringe, in liquid form, through the bottom branch connection, that is to say under the screen placed at half height of the round-bottomed flask and supporting the batches of fungi. After introducing the product, the internal pressure of the round-bottomed flask is re-established at atmospheric pressure. A magnetic stirrer operates during the entire duration of the treatment in order to properly homogenize the air-gas mixture.
At the end of the gassing, the cover for the round-bottomed flask is removed. One minute after this operation, the batches of fungi gassed are taken out and left in the open air for 15 minutes for desorption of the DMDS. They are then transferred into a Petri dish, the latter remaining open for 5 minutes to allow perfect desorption of the gas. […]

[3] = CT 1 050 g·h/m^3 (C 15.91 g/m^3, T 66 h)
[4] = CT 1 402 g·h/m^3 (C 21.24 g/m^3, T 66 h)
[5] = CT 1 450 g·h/m^3 (C 30.96 g/m^3, T 48 h)
[6] = CT 1 899 g·h/m^3 (C 28.77 g/m^3, T 66 h)
[7] = CT 1 981 g·h/m^3 (C 30.02 g/m^3, T 66 h)
[8] = CT 2 460 g·h/m^3 (C 51.25 g/m^3, T 48 h)
[9] = CT 2 471 g·h/m^3 (C 37.44 g/m^3, T 66 h)
[10] = CT 2 837 g·h/m^3 (C 42.98 g/m^3, T 66 h)
[11] = CT 2 974 g·h/m^3 (C 45.06 g/m^3, T 66 h)
[12] = CT 3 169 g·h/m^3 (C 48.02 g/m^3, T 66 h)
[13] = CT 3 467 g·h/m^3 (C 52.53 g/m^3, T 66 h)
[14] = CT 419 g·h/m^3 (C 17.46 g/m^3, T 24 h)
[15] = CT 625 g·h/m^3 (C 26.04 g/m^3, T 24 h)
[16] = CT 703 g·h/m^3 (C 29.29 g/m^3, T 24 h)
[17] = CT 907 g·h/m^3 (C 37.79 g/m^3, T 24 h)

Q: How did the Ovicidal activity ([1]; 1-10 % by mass) turn out when `CSSC` [DMDS, dimethyl disulphide] was run?
A: very high ovicidal activity

Q: What about the “Number of hatchings (cumulative)” value ([1]; concentration by mass 1 %, D5, control 141) of the same compound?
A: 7

Q: What about the “Number of hatchings (cumulative)” value ([1]; concentration by mass 1 %, D10, control 179) of the same compound?
A: 7

Q: What about the “Number of hatchings (cumulative)” value ([1]; concentration by mass 1 %, D13, control 184) of the same compound?
A: 7

Q: What about the “Number of hatchings (cumulative)” value ([1]; concentration by mass 1 %, D17, control 184) of the same compound?
A: 7

Q: What about the “Number of hatchings (cumulative)” value ([1]; concentration by mass 5 %, D5, control 141) of the same compound?
A: 2

Q: And the “Number of hatchings (cumulative)” value ([1]; concentration by mass 5 %, D10, control 179)?
A: 2

Q: And the “Number of hatchings (cumulative)” value ([1]; concentration by mass 5 %, D13, control 184)?
A: 5

Q: What about the “Number of hatchings (cumulative)” value ([1]; concentration by mass 5 %, D17, control 184) of the same compound?
A: 5

Q: What about the “Number of hatchings (cumulative)” value ([1]; concentration by mass 10 %, D5, control 141) of the same compound?
A: 0

Q: What about the “Number of hatchings (cumulative)” value ([1]; concentration by mass 10 %, D10, control 179) of the same compound?
A: 2

Q: And the “Number of hatchings (cumulative)” value ([1]; concentration by mass 10 %, D13, control 184)?
A: 5

Q: And the “Number of hatchings (cumulative)” value ([1]; concentration by mass 10 %, D17, control 184)?
A: 5

Q: And the “Reduction in the number of hatchings” value ([1]; on the last day of observation)?
A: approximately 97%

Q: And the “Mortality rate after 72 h” value ([2]; concentration by mass 1 %)?
A: 80%

Q: What about the “Immobility rate after 48 h” value ([2]; concentration by mass 1 %) of the same compound?
A: 84%

Q: And the “Immobility rate after 24 h” value ([2]; concentration by mass 1 %)?
A: 72%

Q: And the “Mortality rate after 72 h” value ([2]; concentration by mass 5 %)?
A: 98%

Q: And the “Immobility rate after 48 h” value ([2]; concentration by mass 5 %)?
A: 98%

Q: What about the “Immobility rate after 24 h” value ([2]; concentration by mass 5 %) of the same compound?
A: 97%

Q: And the “Nematostatic and nematicidal activity” value ([2]; concentration of greater than or equal to 1%)?
A: high nematostatic and nematicidal activity

Q: And the Nematicidal activity ([2]; concentration of less than 1%)?
A: no nematicidal activity

Q: And the Nematostatic activity ([2]; concentration of less than 1%)?
A: very weak nematostatic activity

Q: What about the “Viability V” value (Sclerotium rolfsii; [3]) of the same compound?
A: 27.6%

Q: What about the “Vitality score Nm (over 19 days)” value (Sclerotium rolfsii; [3]) of the same compound?
A: 2.1

Q: What about the “Reduction in viability RV” value (Sclerotium rolfsii; [3]) of the same compound?
A: 68.0

Q: What about the “Reduction in vitality score RNm” value (Sclerotium rolfsii; [3]) of the same compound?
A: 71.1

Q: What about the “Viability V” value (Sclerotium rolfsii; [4]) of the same compound?
A: 18.3%

Q: What about the “Vitality score Nm (over 19 days)” value (Sclerotium rolfsii; [4]) of the same compound?
A: 1.3

Q: And the “Reduction in viability RV” value (Sclerotium rolfsii; [4])?
A: 78.7

Q: What about the “Reduction in vitality score RNm” value (Sclerotium rolfsii; [4]) of the same compound?
A: 81.8

Q: And the “Viability V” value (Sclerotium rolfsii; [5])?
A: 15.0%

Q: What about the “Vitality score Nm (over 19 days)” value (Sclerotium rolfsii; [5]) of the same compound?
A: 0.7

Q: And the “Reduction in viability RV” value (Sclerotium rolfsii; [5])?
A: 83.2

Q: What about the “Reduction in vitality score RNm” value (Sclerotium rolfsii; [5]) of the same compound?
A: 91.8

Q: What about the “Viability V” value (Sclerotium rolfsii; [6]) of the same compound?
A: 3.1%

Q: What about the “Vitality score Nm (over 19 days)” value (Sclerotium rolfsii; [6]) of the same compound?
A: 0.2

Q: What about the “Reduction in viability RV” value (Sclerotium rolfsii; [6]) of the same compound?
A: 96.4

Q: And the “Reduction in vitality score RNm” value (Sclerotium rolfsii; [6])?
A: 96.8

Q: What about the “Viability V” value (Sclerotium rolfsii; [7]) of the same compound?
A: 4.3%

Q: And the “Vitality score Nm (over 19 days)” value (Sclerotium rolfsii; [7])?
A: 0.3

Q: And the “Reduction in viability RV” value (Sclerotium rolfsii; [7])?
A: 95.0

Q: What about the “Reduction in vitality score RNm” value (Sclerotium rolfsii; [7]) of the same compound?
A: 95.1

Q: What about the “Viability V” value (Sclerotium rolfsii; [8]) of the same compound?
A: 10.0%

Q: What about the “Vitality score Nm (over 19 days)” value (Sclerotium rolfsii; [8]) of the same compound?
A: 0.4

Q: What about the “Reduction in viability RV” value (Sclerotium rolfsii; [8]) of the same compound?
A: 88.8

Q: What about the “Reduction in vitality score RNm” value (Sclerotium rolfsii; [8]) of the same compound?
A: 94.7

Q: And the “Viability V” value (Sclerotium rolfsii; [9])?
A: 0%

Q: What about the “Vitality score Nm (over 19 days)” value (Sclerotium rolfsii; [9]) of the same compound?
A: 0

Q: What about the “Reduction in viability RV” value (Sclerotium rolfsii; [9]) of the same compound?
A: 100

Q: What about the “Reduction in vitality score RNm” value (Sclerotium rolfsii; [9]) of the same compound?
A: 100

Q: And the “Viability V” value (Sclerotium rolfsii; [10])?
A: 0%

Q: What about the “Vitality score Nm (over 19 days)” value (Sclerotium rolfsii; [10]) of the same compound?
A: 0

Q: And the “Reduction in viability RV” value (Sclerotium rolfsii; [10])?
A: 100

Q: What about the “Reduction in vitality score RNm” value (Sclerotium rolfsii; [10]) of the same compound?
A: 100

Q: What about the “Viability V” value (Sclerotium rolfsii; [11]) of the same compound?
A: 0%

Q: And the “Vitality score Nm (over 19 days)” value (Sclerotium rolfsii; [11])?
A: 0

Q: What about the “Reduction in viability RV” value (Sclerotium rolfsii; [11]) of the same compound?
A: 100

Q: What about the “Reduction in vitality score RNm” value (Sclerotium rolfsii; [11]) of the same compound?
A: 100

Q: And the “Viability V” value (Sclerotium rolfsii; [12])?
A: 0%

Q: What about the “Vitality score Nm (over 19 days)” value (Sclerotium rolfsii; [12]) of the same compound?
A: 0

Q: And the “Reduction in viability RV” value (Sclerotium rolfsii; [12])?
A: 100

Q: What about the “Reduction in vitality score RNm” value (Sclerotium rolfsii; [12]) of the same compound?
A: 100

Q: What about the “Viability V” value (Sclerotium rolfsii; [13]) of the same compound?
A: 0%

Q: And the “Vitality score Nm (over 19 days)” value (Sclerotium rolfsii; [13])?
A: 0

Q: What about the “Reduction in viability RV” value (Sclerotium rolfsii; [13]) of the same compound?
A: 100

Q: What about the “Reduction in vitality score RNm” value (Sclerotium rolfsii; [13]) of the same compound?
A: 100

Q: And the “Viability V” value (Sclerotium rolfsii; [14])?
A: 59.1%

Q: And the “Vitality score Nm (over 19 days)” value (Sclerotium rolfsii; [14])?
A: 5.1

Q: What about the “Reduction in viability RV” value (Sclerotium rolfsii; [14]) of the same compound?
A: 33.7

Q: What about the “Reduction in vitality score RNm” value (Sclerotium rolfsii; [14]) of the same compound?
A: 40.9

Q: And the “Viability V” value (Sclerotium rolfsii; [15])?
A: 53.7%

Q: What about the “Vitality score Nm (over 19 days)” value (Sclerotium rolfsii; [15]) of the same compound?
A: 4.8

Q: And the “Reduction in viability RV” value (Sclerotium rolfsii; [15])?
A: 39.8

Q: And the “Reduction in vitality score RNm” value (Sclerotium rolfsii; [15])?
A: 44.3

Q: What about the “Viability V” value (Sclerotium rolfsii; [16]) of the same compound?
A: 51.4%

Q: What about the “Vitality score Nm (over 19 days)” value (Sclerotium rolfsii; [16]) of the same compound?
A: 4.4

Q: And the “Reduction in viability RV” value (Sclerotium rolfsii; [16])?
A: 42.4

Q: And the “Reduction in vitality score RNm” value (Sclerotium rolfsii; [16])?
A: 48.7

Q: And the “Viability V” value (Sclerotium rolfsii; [17])?
A: 16.2%

Q: What about the “Vitality score Nm (over 19 days)” value (Sclerotium rolfsii; [17]) of the same compound?
A: 1.4

Q: What about the “Reduction in viability RV” value (Sclerotium rolfsii; [17]) of the same compound?
A: 81.8

Q: What about the “Reduction in vitality score RNm” value (Sclerotium rolfsii; [17]) of the same compound?
A: 84.2
